According to publication PMC7367283, “A PIP2 substitute mediates voltage sensor-pore coupling in KCNQ activation” (Communications Biology, 2020):

Target: hERG (Homo sapiens, UniProt Q12809)
Experiment: Two-electrode voltage clamp of hERG in Xenopus oocytes
Type: cell-based
Conditions: 10 µM CP1
Excerpt: Since CP1 has a similar effect to PIP2 in mediating VSD-pore coupling in KCNQ channels, we tested if CP1 has effects on other ion channels that are also sensitive to PIP2 or are voltage activated and share general structural features of the VSD and the pore with KCNQ. […] On the other hand, NaV1.5 and KV4.2 are voltage-gated ion channels.
Fig. 6 Effects of CP1 on other ion channels expressed in Xenopus oocytes. a Currents of Kir1.1, CaV1.2, NaV1.5, hERG, and KV4.2 before and after application of 10 µM CP1, respectively. The voltages for holding, test, and returning pulses were Kir1.1, 0 mV, −100 to +60 mV, 0; CaV1.2, −100 mV, −100 to +60, −100 mV; NaV1.5, −100, −120 to +40 mV, −120 mV; […]; KV4.2, −80 mV, −100 mV to +80 mV, −40 mV; HCN4, −30 mV, −30 to −140 mV, −120 mV. b Current–voltage relations of Kir1.1 channel in the absence or presence of 10 µM CP1 (n = 7). c–g G–V relations of indicated channels with and without 10 µM CP1. The ΔV1/2 of G–V relations (mV) are CaV1.2, 3.38 ± 0.71 mV (c); NaV1.5, −2.26 ± 0.95 mV (d); hERG, 6.85 ± 1.81 mV (e); KV 4.2, −2.26 ± 2.88 mV (f); HCN4, 17.13 ± 1.59 mV (g).
Complementary DNA (cDNA) encoding human KCNQ1 (UniProtKB/Swiss‐Prot under accession no. P51787), KCNQ2 (O43526), KCNQ3 (O43525), KCNE1 (P15382), Kir1.1 (P48048), hERG (Q12809), KV4.2 (Q63881), NaV1.5 (Q14524), NaV β1 (Q07699), CaV1.2 (Q13936), CaV β1a (Q02641), CaV α2/δ1 (P54289), and HCN4 (Q9Y3Q4) were subcloned into oocyte expression vectors, respectively. Site-directed mutations of the KCNQ1 channel were all produced by overlap extension polymerase chain reaction (PCR) with high-fidelity Pfu polymerase (Stratagene, CA). The presence of the desired mutation was verified by sequencing the PCR-amplified regions. All the primer sequences used in this study are available in Supplementary Table 1. The complementary RNA (cRNA) of all these channels and mutations was transcribed in vitro with the T3, T7, or SP6 polymerase mMessage mMachine kit (Invitrogen, Thermo Fisher Scientific, MO).
The whole-oocyte ionic currents were recorded with a GeneClamp 500B amplifier (Axon Instruments, CA) or iTEV90 amplifier (HEKA, Germany) and then sampled at 1 kHz and low-pass-filtered at 2 kHz. The Patchmaster software (HEKA, Germany) was used to acquire data. The Kir1.1 current was recorded with a high K^+ bath solution containing (in mM) 96 KCl, 4 NaCl, 1 CaCl2, 2 MgCl2, and 10 HEPES, pH 7.3–7.4. The HCN4 current was recorded in ND66 solution containing (in mM) 66 NaCl, 32 KCl, 1.8 CaCl2, 1 MgCl2, and 5 HEPES, pH 7.6. All the other potassium channels were recorded in ND96 solution. The currents of CaV1.2 channel were recorded in 40 mM Ba^2+ bath solution containing (in mM) 40 Ba(OH)2, 50 TEA-OH, 2 KOH, and 5 HEPES, adjusted to pH 7.4 with methanesulfonic acid. CP1 (DISODIUM 5-BROMO-2-[9-CHLORO-3-(SULFONATOOXY) NAPHTHO [1,2-B] THIEN-2-YL]-1H-INDOL-3-YL SULFATE, Sigma-Aldrich, MO) and Chromanol 293B (Sigma-Aldrich, MO) were dissolved in bath solutions. All the chemicals were purchased from Sigma-Aldrich. To measure the I–V relations of the Kir1.1 channel, the test voltage was set from −100 to +60 mV for 1 s with 20-mV increments. The test pulses were stepped from a holding potential of 0 mV and then stepped back to 0 mV. The HCN4 currents were recorded by a test pulse between −30 and −140 mV in 10-mV step from a holding potential of −30 mV. For all the other potassium channels and CaV1.2 channel, the holding potential was −80 or −100 mV, and the test pulse was applied with 10-mV increment, which was followed with a repolarization pulse at −40 mV before returning to the holding potential. The durations of test and the repolarization pulse vary for different channels to allow the activation and deactivation of the channel to reach their steady states.

Sequence of hERG (Q12809 whole entry): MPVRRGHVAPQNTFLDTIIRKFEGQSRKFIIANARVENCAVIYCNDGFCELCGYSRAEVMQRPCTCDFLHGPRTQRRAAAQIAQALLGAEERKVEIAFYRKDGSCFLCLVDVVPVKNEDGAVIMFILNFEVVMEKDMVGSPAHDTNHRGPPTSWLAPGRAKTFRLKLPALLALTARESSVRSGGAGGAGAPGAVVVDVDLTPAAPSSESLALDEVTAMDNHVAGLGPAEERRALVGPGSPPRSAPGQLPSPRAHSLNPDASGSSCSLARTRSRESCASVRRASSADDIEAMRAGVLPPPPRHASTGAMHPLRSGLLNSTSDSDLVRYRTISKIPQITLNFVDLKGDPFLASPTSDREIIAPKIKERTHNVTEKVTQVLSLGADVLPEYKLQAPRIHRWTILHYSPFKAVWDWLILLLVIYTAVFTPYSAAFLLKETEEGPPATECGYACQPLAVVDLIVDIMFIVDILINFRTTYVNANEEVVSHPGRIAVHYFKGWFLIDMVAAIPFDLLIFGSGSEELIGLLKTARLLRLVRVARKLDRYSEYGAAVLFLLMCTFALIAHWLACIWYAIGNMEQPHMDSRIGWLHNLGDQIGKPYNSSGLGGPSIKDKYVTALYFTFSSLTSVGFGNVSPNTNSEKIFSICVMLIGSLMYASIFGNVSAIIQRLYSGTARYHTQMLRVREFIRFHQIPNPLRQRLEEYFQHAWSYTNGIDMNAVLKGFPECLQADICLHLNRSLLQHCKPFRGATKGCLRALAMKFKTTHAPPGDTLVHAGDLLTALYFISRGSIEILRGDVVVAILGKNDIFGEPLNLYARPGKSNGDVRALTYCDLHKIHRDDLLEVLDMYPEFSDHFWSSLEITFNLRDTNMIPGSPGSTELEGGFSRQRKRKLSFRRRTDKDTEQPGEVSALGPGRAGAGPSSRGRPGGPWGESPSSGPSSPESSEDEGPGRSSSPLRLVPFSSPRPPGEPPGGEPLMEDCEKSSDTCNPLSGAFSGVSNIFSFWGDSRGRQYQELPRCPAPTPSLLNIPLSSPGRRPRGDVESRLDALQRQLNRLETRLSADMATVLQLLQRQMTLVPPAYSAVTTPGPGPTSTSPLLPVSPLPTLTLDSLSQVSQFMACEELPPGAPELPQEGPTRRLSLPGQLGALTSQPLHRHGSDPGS

O=S(=O)([O-])Oc1c(-c2sc3c(ccc4cccc(Cl)c43)c2OS(=O)(=O)[O-])[nH]c2ccc(Br)cc12.[Na+].[Na+] [CP1, DISODIUM 5-BROMO-2-[9-CHLORO-3-(SULFONATOOXY) NAPHTHO [1,2-B] THIEN-2-YL]-1H-INDOL-3-YL SULFATE]
ΔV1/2 of G–V relations: 6.85 ± 1.81 mV
G/Gmax Mean (Fig. 6e) (voltage 0 mV): 0.8601
G/Gmax Mean (Fig. 6e) (voltage 10 mV): 0.9576
G/Gmax Mean (Fig. 6e) (voltage 20 mV): 1.0000
G/Gmax Mean (Fig. 6e) (voltage 30 mV): 0.9916
G/Gmax Mean (Fig. 6e) (voltage 40 mV): 0.9932
G/Gmax Mean (Fig. 6e) (voltage 50 mV): 0.9886
G/Gmax Mean (Fig. 6e) (voltage 60 mV): 0.9837
G/Gmax Mean (Fig. 6e) (voltage -10 mV): 0.6448
G/Gmax Mean (Fig. 6e) (voltage -20 mV): 0.3564
G/Gmax Mean (Fig. 6e) (voltage -30 mV): 0.1368
G/Gmax Mean (Fig. 6e) (voltage -40 mV): 0.0404
G/Gmax Mean (Fig. 6e) (voltage -50 mV): 0.0144
G/Gmax Mean (Fig. 6e) (voltage -60 mV): 0.0098
G/Gmax Mean (Fig. 6e) (voltage -70 mV): 0.0091
G/Gmax Mean (Fig. 6e) (voltage -80 mV): 0.0089
G/Gmax Mean (Fig. 6e) (voltage -90 mV): 0.0084
G/Gmax Mean (Fig. 6e) (voltage -100 mV): 0.0080
G/Gmax Mean (Fig. 6e) (voltage -110 mV): 0.0069
G/Gmax Mean (Fig. 6e) (voltage -120 mV): 0.0065
